From patent publication US9724408B2, “Compositions and methods for activating stimulator of interferon gene-dependent signalling” (ADURO BIOTECH, INC., priority 2013, dated 2017)

Key:
[1] = system: human STING variants (WT, REF, HAQ, AQ and Q); assay: IFNβ-LUC reporter in HEK293T cells expressing human STING alleles; format: cell-based; settings: 10 μM, digitonin permeabilization, 6 hrs, FIG. 14
Protocol: (§1) MSCV2.2 plasmids encoding hSTING(REF)-GFP, hSTING(WT)-GFP, hSTING(HAQ)-GFP, hSTING(Q)-GFP and mSTING(WT)-GFP were obtained from the Vance Laboratory at UC Berkeley. hSTING(AQ)-GFP was derived from hSTING(Q)-GFP using a QuickChange Site-Directed Mutagenesis kit (Stratagene). […] 1×10^4 HEK293T STING cells were seeded in 96-well plates and transiently transfected (using Lipofectamine 2000) with 50 ng of a human IFN-β reporter plasmid (pLuc-IFN-β) expressing the human IFN-β promoter upstream of a luciferase reporter and 10 ng of TK-renilla for normalization. 24 hours later, cells were stimulated with native and synthetic CDN derivative molecules using digitonin permeabalization to ensure uniform uptake. Each STING cell line was stimulated with 10 μM of cyclic [G(3′,5′)pA(3′,5′)p] (cGAMP), cyclic [G(2′,5′)pA(3′,5′)p] […] (RR-CDA), cyclic [A(2′,5′)pA(3′,5′)p] […] (RR-CDG), cyclic [G(2′,5′)pG(3′,5′)p] […] (ML RR-CDG) in 25 ul digitonin buffer (50 mM HEPES, 100 mM KCL, 3 mM MgCl2, 0.1 mM DTT, 85 mM Sucrose, 0.2% BSA, 1 mM ATP, 0.1 mM GTP, 10 ug/ml digitonin). After 20 min, the stimulation mixtures were removed and 200 ul of standard RPMI media was added. After stimulation for 6 hrs, cell lysates were prepared and reporter gene activity measured using the Dual Luciferase Assay System (Promega) on a Spectramax M3 luminometer.

[2] = system: 4T1 mammary carcinoma cells; assay: 4T1 mammary carcinoma flank tumor model, intratumoral CDN; format: in vivo, BALB/c mice
Protocol: Either CT26 colon carcinoma cells (1×10^5 cells in 100 μL PBS) or 4T1 mammary carcinoma cells (1×10^5 cells in 100 μL PBS) were implanted subcutaneously on the flanks of 6-8 week old female BALB/c mice (8 mice per group). Treatments began when tumors reached a volume of approximately 75 mm^3, which was approximately day 14 post tumor implantation. The compounds Rp, Rp dithio cyclic [A(2′,5′)pA(3′,5′)p] (ML RR-CDA) or Rp, Rp dithio cyclic [G(2′,5′)pG(3′,5′)p] (ML RR-CDG) compounds (25 μg in a total volume of 40 μL HBSS), or HBSS vehicle control, and Rp, Rp dithio cyclic [A(2′,5′)pA(3′,5′)p] (ML RR-CDA) (50 μg in a total volume of 40 μL HBSS) or HBSS vehicle control, were administered by subcutaneous injection into the center of the tumor using a 27 gauge needle. Injections were repeated every three days, for a total of three intratumoral injections.
To determine whether CDN derivative molecules induce effective and durable anti-tumor immunity in an alternate tumor model, 6-8 week old female BALB/c mice (8 mice per group) were implanted with 4T1 mammary carcinoma cells (1×10^5 cells in 100 μL PBS). […] On day 35 post tumor implantation, surviving mice and age-matched naïve control mice were implanted on the contralateral flank with either CT26 or 4T1 (both 1×10^5 cells in 100 μL PBS) tumor cells (4 mice per group), and monitored for tumor growth.

4T1 = assay: Re-challenge of surviving mice with 4T1 tumor cells on the contralateral flank; format: in vivo, BALB/c mice
Protocol: To determine whether the synthetic derivative CDN molecules elicit durable and effective anti-tumor T-cell immunity, 6-8 week old female BALB/c mice (8 mice per group) were implanted with CT26 colon carcinoma cells (1×10^5 cells in 100 μL PBS). Mice were treated with Rp, Rp dithio cyclic [A(2′,5′)pA(3′,5′)p] (ML RR-CDA) compound ([…] in a total volume of 40 μL HBSS) or HBSS vehicle control, and tumor growth was monitored as per previous example. Mice were bled on day 18 post tumor implantation and PBMCs were isolated by Ficoll gradient (Miltenyi Biotech). 5×10^4 PBMCs were stimulated overnight in an IFNγ ELISpot assay with media alone (unstimulated), or with 1 μM of the endogenous H-2 L^d-restricted tumor rejection antigen AH1 peptide in the presence of 1×10^5 naïve splenocytes as feeder cells. IFN-γ ELISpot plates were developed and quantified using a CTL plate reader and ImmunoSpot software. On day 55 post tumor implantation, surviving mice and age-matched naïve control mice were implanted on the contralateral flank with either CT26 or 4T1 (both 1×10^5 cells in 100 μL PBS) tumor cells (4 mice per group), and monitored for tumor growth. […]

[3] = system: CT26 colon carcinoma cells; assay: Abscopal model, CT26 tumors on contralateral flanks, primary tumor injected; format: in vivo, BALB/c mice; settings: 50 μg into the primary tumor only, three injections
From the text: (§2) The STING-dependent induction of tumor-specific T cell immunity protects animals against subsequent challenge with the autologous tumor. It will be apparent to those skilled in the art that advanced cancer is metastatic, and that to be effective, therapies must inhibit outgrowth of distal masses. Treatment of one or selected lesions that inhibits tumor outgrowth of distal untreated tumor masses is known as an abscopal effect. To test whether IT injection of a selected tumor with synthetic CDN derivative molecules inhibited the tumor outgrowth of a distal untreated tumor, (A) CT26 colon carcinoma cells (1×10^5 cells in 100 μL PBS) and (B) 4T1 mammary carcinoma cells (1×10^5 cells in 100 μL PBS) were implanted subcutaneously on the contralateral flanks of 6-8 week old female BALB/c mice (8 mice per group). Treatments began when tumors reached a volume of approximately 75 mm^3, on day 13 post tumor implantation. The Rp, Rp dithio cyclic [A(2′,5′)pA(3′,5′)p] (ML RR-CDA) compound (50 μg in a total volume of 40 μL HBSS), or HBSS vehicle control, was administered by subcutaneous injection into the center of the primary (right side) tumor only using a 27 gauge needle. Injections were repeated every three days, for a total of three intratumoral injections.

[4] = system: 4T1 mammary carcinoma cells; assay: Abscopal model, 4T1 tumors on contralateral flanks, primary tumor injected; format: in vivo, BALB/c mice; settings: 50 μg into the primary tumor only, three injections
From the text: as §2

hSTING (REF) = biological target: T1, hSTING (REF) (Homo sapiens, UniProt Q86WV6); assay: IFNβ-LUC reporter in HEK293T cells expressing hSTING (REF); format: cell-based; settings: 10 μM, digitonin permeabilization, 6 hrs, FIG. 14
T1 construct: GFP; expressed in transfected cells; plasmid from the Vance Laboratory, UC Berkeley
T1 sequence (Q86WV6 whole entry): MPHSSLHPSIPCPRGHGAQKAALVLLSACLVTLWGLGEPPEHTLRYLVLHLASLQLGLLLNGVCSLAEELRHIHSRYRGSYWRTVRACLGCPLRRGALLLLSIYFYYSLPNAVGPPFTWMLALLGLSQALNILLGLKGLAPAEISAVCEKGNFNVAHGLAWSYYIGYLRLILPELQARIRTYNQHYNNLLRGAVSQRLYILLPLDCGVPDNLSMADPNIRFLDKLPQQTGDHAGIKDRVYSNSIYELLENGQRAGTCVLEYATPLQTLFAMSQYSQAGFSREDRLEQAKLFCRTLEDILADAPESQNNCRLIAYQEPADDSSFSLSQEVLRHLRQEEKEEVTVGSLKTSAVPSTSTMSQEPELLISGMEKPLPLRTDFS
Protocol: as §1

## Nc1ncnc2c1ncn2[C@@H]1O[C@@H]2COP(O)(=S)O[C@@H]3C(O)[C@@H](COP(O)(=S)O[C@H]2[C@H]1O)O[C@H]3n1cnc2c(N)ncnc21 (some centres unmarked) [ML RR-CDA, dithio-[RP, RP]-cyclic-[A(2′,5′)pA(3′,5′)p]]
[1]
  IFNβ reporter activity, all human STING alleles: strongly induce IFNβ reporter activity by all human STING alleles
[2]; 50 μg intratumoral, FIG. 22A
  inhibition of tumor growth of established 4T1 mammary carcinomas: completely inhibited tumor growth of established 4T1 mammary carcinomas
[2]; intratumoral, every three days, three injections, 8 mice per group, FIG. 19C
  inhibition of tumor growth of established 4T1 mammary tumors: completely inhibited tumor growth of all established 4T1 mammary tumors
4T1; re-challenge on day 35 post tumor implantation, FIG. 22B
  protection against 4T1 re-challenge, survivors of 4T1 tumors: complete protection
4T1; re-challenge on day 55 post tumor implantation, FIG. 21C
  protection against 4T1 re-challenge, survivors of CT26 tumors: not inhibiting growth of the 4T1 tumor type
[3]; FIG. 23A
  inhibition of the treated primary tumor, CT26: complete inhibition of the treated primary tumor
[3]; P=0.0011, FIG. 23A
  outgrowth of the contralateral (untreated) tumor, CT26: significantly inhibited
[4]; FIG. 23B
  inhibition of the treated primary tumor, 4T1: complete inhibition of the treated primary tumor
[4]; P=0.0019, FIG. 23B
  outgrowth of the contralateral (untreated) tumor, 4T1: significantly inhibited

## Nc1nc2c(ncn2[C@@H]2O[C@@H]3CO[P@@](O)(=S)O[C@@H]4[C@H](O)[C@@H](CO[P@@](O)(=S)O[C@H]3[C@H]2O)O[C@H]4n2cnc3c(=O)[nH]c(N)nc32)c(=O)[nH]1 [ML RR-CDG, dithio-[RP,RP]-cyclic-[G(2′,5′)pG(3′,5′)p]]
[1]
  IFNβ reporter activity, all human STING alleles: strongly induce IFNβ reporter activity by all human STING alleles
hSTING (REF)
  IFNβ reporter response of hSTING (REF): responsive to stimulation
